pIC50: −log10 of the molar value. Read-outs that look alike come from different tables or passages of the source. Values belong to the compound of their own block, whether it stands above or below them.
Tested on: up-regulation of ICAM-1 (CD54) by IFNγ in A549 lung epithelial cells
Assay: A549 Epithelial Line Stimulated with IFNγ (ICAM-1 surface expression, FACS)
Assay type: cell-based, human
Settings: ICAM-1 expression by FACS, read-out: IC50, Example 43
Summary of the method: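 ICAM-1 (CD54) flow cytometry on live-gated A549 cells, geometric mean versus dose giving EC50. Cells received IFNγ at 75 ng/mL for 24 h after a 1 h compound pre-treatment spanning 30 μM to 14 nM in medium with 5% FBS and 0.3% DMSO.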

[1] = A549 epithelial line stimulated with IFNγ
[2] = A549 cells stimulated with IFNγ

Compound: N2-(3-Aminosulfonyl-4-methylphenyl)-5-fluoro-N4-[4-(2-pyridinyl)-3-fluoromethyleneoxyphenyl]-2,4-pyrimidinediamine [Compound I-172]
pIC50 [1]: 4.41

Compound: CN1CCN(c2ccc(Nc3ncc(F)c(Nc4ccc(OCC#N)c(F)c4)n3)cc2S(N)(=O)=O)CC1 [Compound I-10, N2-[3-Aminosulfonyl-4-(4-methylpiperazine-1-yl)phenyl]-5-fluoro-N4-(4-cyanomethyleneoxy-3-fluorophenyl)-2,4-pyrimidinediamine]
pIC50 [1]: 5.18

Compound: CNS(=O)(=O)c1cc(Nc2ncc(F)c(Nc3ccc(OCc4cccnc4)cc3)n2)ccc1C [Compound I-190, 5-Fluoro-N2-[3-(N-methylaminosulfony)-4-methylphenyl]-5-fluoro-N4-[4-(3-pyridinyl)methyleneoxyphenyl]-2,4-pyrimidinediamine]
pIC50 [1]: 5.03

Compound: Cc1ccc(Nc2ncc(Br)c(Nc3ccc(OCC#N)cc3)n2)cc1S(N)(=O)=O [Compound I-14, N2-(3-Aminosulfonyl-4-methylphenyl)-5-bromo-N4-(4-cyanomethyleneoxyphenyl)-2,4-pyrimidinediamine]
pIC50 [1]: 6.21

Compound: CC(Oc1ccc(Nc2nc(Nc3cccc(S(N)(=O)=O)c3)ncc2F)cc1)C(N)=O (racemic) [Compound I-117, Racemic N4-[4-(1-Aminocarbonyl)ethoxy]phenyl-N2-(3-aminosulfonyl)phenyl-5-fluoro-2,4-pyrimidinediamine]
pIC50 [1]: 4.44

Compound: N#CCOc1ccc(Nc2nc(Nc3cccc(S(N)(=O)=O)c3)ncc2Br)cc1 [Compound I-13, N2-(3-Aminosulfonylphenyl)-5-bromo-N4-(4-cyanomethyleneoxyphenyl)-2,4-pyrimidinediamine]
pIC50 [1]: 5.87

Compound: Cc1ccc(Nc2ncc(F)c(Nc3cc(C)c(OCC(N)=O)c(C)c3)n2)cc1S(N)(=O)=O [Compound I-96, N4-(4-Aminocarbonylmethoxy-3,5-dimethyl)phenyl-N2-(3-aminosulfonyl-4-methyl)phenyl-5-fluoro-2,4-pyrimidinediamine]
pIC50 [1]: 4.39

Compound: Cc1ccc(Nc2ncc(F)c(Nc3ccc(OCC#N)c(F)c3)n2)cc1S(N)(=O)=O [Compound I-11, N2-(3-Aminosulfonyl-4-methylphenyl)-5-fluoro-N4-(4-cyanomethyleneoxy-3-fluorophenyl)-2,4-pyrimidinediamine]
pIC50 [1]: 4.75

Compound: Cc1cc(Nc2nc(Nc3ccc(S(N)(=O)=O)cc3)ncc2F)ccc1OC(C)C(N)=O (racemic) [Compound I-119, Racemic N4-[4-(1-Aminocarbonyl)ethoxy-3-methyl]phenyl-N2-(4-aminosulfonyl)phenyl-5-fluoro-2,4-pyrimidinediamine]
pIC50 [1]: 5.01

Compound: Cc1ccc(Nc2ncc(F)c(Nc3cc(C)c(OC(C)C(N)=O)c(C)c3)n2)cc1S(N)(=O)=O (racemic) [Compound I-124, Racemic N4-[4-(1-Aminocarbonyl)ethoxy-3,5-dimethyl]phenyl-N2-(3-aminosulfonyl-4-methyl)phenyl-5-fluoro-2,4-pyrimidinediamine]
pIC50 [1]: 4.98

Compound: Cc1ccc(Nc2ncc(F)c(Nc3ccc(OCc4cccnc4)cc3)n2)cc1S(N)(=O)=O [Compound I-189, N2-(3-Aminosulfonyl-4-methylphenyl)-5-fluoro-N4-[4-(3-pyridinyl)methyleneoxyphenyl]-2,4-pyrimidinediamine]
pIC50 [1]: 5.17

Compound: N#CCOc1ccc(Nc2nc(Nc3cccc(S(N)(=O)=O)c3)ncc2F)cc1F [Compound I-12, N2-(3-Aminosulfonylphenyl)-5-fluoro-N4-(4-cyanomethyleneoxy-3-fluorophenyl)-2,4-pyrimidinediamine]
pIC50 [1]: 5.50

Compound: Cc1ccc(Nc2nc(Nc3ccc(S(N)(=O)=O)cc3)ncc2F)cc1OCC(=O)N1CCOCC1 [Compound I-209, N2-(4-Aminosulfonylphenyl)-5-fluoro-N4-[4-methyl-3-(2-morpholinocarbonylmethyleneoxy)phenyl]-2,4-pyrimidinediamine]
pIC50 [1]: 5.53

Compound: CN1CCN(c2ccc(Nc3ncc(F)c(Nc4ccc(OCC#N)cc4)n3)cc2S(N)(=O)=O)CC1 [Compound I-9, N2-[3-Aminosulfonyl-4-(4-methylpiperazin-1-yl)phenyl]-5-fluoro-N4-(4-cyanomethyleneoxyphenyl)-2,4-pyrimidinediamine]
pIC50 [1]: 4.81

Compound: Cc1ccc(Nc2ncc(F)c(Nc3ccc(OCc4ccncc4)cc3)n2)cc1S(N)(=O)=O [Compound I-194, N2-(3-Aminosulfonyl-4-methylphenyl)-5-fluoro-N4-[4-(4-pyridinyl)methyleneoxyphenyl]-2,4-pyrimidinediamine]
pIC50 [1]: 5.30

Compound: NS(=O)(=O)c1cccc(Nc2ncc(F)c(Nc3ccc(OCc4cccnc4)cc3)n2)c1 [Compound I-188, N2-(3-Aminosulfonylphenyl)-5-fluoro-N4-[4-(3-pyridinyl)methyleneoxyphenyl]-2,4-pyrimidinediamine]
pIC50 [1]: 4.82

Compound: Cc1cc(Nc2nc(Nc3cccc(S(N)(=O)=O)c3)ncc2F)ccc1OC(C)C(N)=O (racemic) [Compound I-120, Racemic N4-[4-(1-Aminocarbonyl)ethoxy-3-methyl]phenyl-N2-(3-aminosulfonyl)phenyl-5-fluoro-2,4-pyrimidinediamine]
pIC50 [1]: 4.70

Compound: Cc1cc(Nc2nc(Nc3ccc(C)c(S(N)(=O)=O)c3)ncc2F)ccc1OC(C)C(N)=O (racemic) [Compound I-121, Racemic N4-[4-(1-Aminocarbonyl)ethoxy-3-methyl]phenyl-N2-(3-aminosulfonyl-4-methyl)phenyl-5-fluoro-2,4-pyrimidinediamine]
pIC50 [1]: 4.84

Compound: Cc1cc(Nc2nc(Nc3cccc(S(N)(=O)=O)c3)ncc2F)cc(C)c1OC(C)C(N)=O (racemic) [Compound I-123, Racemic N4-[4-(1-Aminocarbonyl)ethoxy-3,5-dimethyl]phenyl-N2-(3-aminosulfonyl)phenyl-5-fluoro-2,4-pyrimidinediamine]
pIC50 [1]: 4.89

Continued, values first:

pIC50 [2]: 4.88
Compound: CCS(=O)(=O)N1CCc2cc(Nc3nc(Nc4ccc(C)c(S(N)(=O)=O)c4)ncc3F)ccc2C1 [VII-15, N2-(3-aminosulfonyl-4-methyl)phenyl-N4-[(N-ethylsulfonyl)-1,2,3,4-tetrahydroisoquinolin-6-yl]-5-fluoro-2,4-pyrimidinediamine]

pIC50 [2]: 4.26
Compound: N2-[3-Aminosulfonyl-4-(4-methylpiperazine-1-yl)phenyl]-N4-(3-cyanomethylene-1H-indol-7-yl)-5-fluoro-2,4-pyrimidinediamine [IX-18]

pIC50 [2]: 5.21
Compound: N#CCn1ccc2cc(Nc3nc(Nc4cccc(S(N)(=O)=O)c4)ncc3F)ccc21 [IX-5, N2-(3-Aminosulfonylphenyl)-N4-(1-cyanomethyleneindol-5-yl)-5-fluoro-2,4-pyrimidinediamine]

pIC50 [2]: 4.90
Compound: CNC(=O)N1CCCc2cc(Nc3nc(Nc4ccc(C)c(S(N)(=O)=O)c4)ncc3F)ccc21 [VII-19, N2-(3-Aminosulfonyl-4-methylphenyl)-5-fluoro-N4-[1-(methylaminocarbonyl)-1,2,3,4-tetrahydroquin-6-yl]-2,4-pyrimidinediamine]

pIC50 [2]: 5.35
Compound: CN1C(=O)CSc2ccc(Nc3nc(Nc4cccc(S(=O)(=O)N5CCCCC5)c4)ncc3F)cc21 [VII-50, 5-Fluoro-N4-(4-methyl-3-oxo-benz[1,4]thiazin-6-yl)-N2-(3-pipendinosulfonylphenyl)-2,4-pyrimidinediamine]

pIC50 [2]: 4.66
Compound: N2-[3-Aminosulfonyl-4-(4-methylpiperazine-1-yl)phenyl]-N4-(3-cyanomethylene-1H-indol-6-yl)-5-fluoro-2,4-pyrimidinediamine [IX-17]

pIC50 [2]: 5.28
Compound: Cc1ccc(Nc2ncc(F)c(Nc3ccc4c(ccn4CC#N)c3)n2)cc1S(N)(=O)=O [IX-8, N2-(3-Aminosulfonyl-4-methylphenyl)-N4-(1-cyanomethyleneindol-5-yl)-5-fluoro-2,4-pyrimidinediamine]

pIC50 [2]: 5.58
Compound: CS(=O)(=O)N1CCc2cc(Nc3nc(Nc4cccc(S(N)(=O)=O)c4)ncc3F)ccc21 [VII-60, N2-(3-Aminosulfonylphenyl)-5-fluoro-N4-[4-(1-methylsulfonyl)indolin-5-yl]-2,4-pyrimidinediamine]

pIC50 [2]: 4.43
Compound: N#CCn1ccc2cc(Nc3nc(Nc4ccc(S(N)(=O)=O)cc4)ncc3F)ccc21 [IX-6, N2-(4-Aminosulfonylphenyl)-N4-(1-cyanomethyleneindol-5-yl)-5-fluoro-2,4-pyrimidinediamine]

pIC50 [2]: 4.78
Compound: NC1CCOc2ccc(Nc3nc(Nc4cccc(S(N)(=O)=O)c4)ncc3F)cc21 (stereo not shown) [VII-28, N2-(3-Aminosulfonylphenyl)-N4-(chroman-4-amine-6-yl)-5-fluoro-2,4-pyrimidinediamine]

pIC50 [2]: 4.73
Compound: C#CCOc1ccc(Nc2nc(Nc3ccc(C)c(S(=O)(=O)NC4CCN(C)CC4)c3)ncc2F)cc1 [VI-69, 5-Fluoro-N2-{[4-methyl-3-((1-methylpiperidin-4-yl)aminosulfonyl)]phenyl} N4-[4-(prop-2-ynyloxy)phenyl]-2,4-pyrimidinediamine]

pIC50 [2]: 5.00
Compound: CCS(=O)(=O)N1CCc2cc(Nc3nc(Nc4cccc(S(N)(=O)=O)c4)ncc3F)ccc2C1 [VII-14, N2-(3-aminosulfonyl)phenyl-N4-[(N-ethylsulfonyl)-1,2,3,4-tetrahydroisoquinolin-6-yl]-5-fluoro-2,4-pyrimidinediamine]

pIC50 [2]: 4.08
Compound: N#CCN1C(=O)CSc2ccc(Nc3nc(Nc4cccc(S(N)(=O)=O)c4)ncc3F)cc21 [VII-36, N2-(3-Aminosulphonylphenyl)-5-fluoro-N4-(3-oxo-4-cyanomethyl-benzo[1,4]thiazin-6-yl)-2,4-pyrimidinediamine]

pIC50 [2]: 5.39
Compound: Cc1ccc(Nc2ncc(F)c(Nc3ccc4c(c3)NC(=O)CS4)n2)cc1S(N)(=O)=O [VII-45, N2-(3-Aminosulphonyl-4-methyl-phenyl)-5-fluoro-N4-(3-oxo-4H-benzo[1,4]thiazin-6-yl)-2,4-pyrimidinediamine]

pIC50 [2]: 4.52
Compound: NC1CCOc2ccc(Nc3nc(Nc4ccc(S(N)(=O)=O)cc4)ncc3F)cc21 (stereo not shown) [VII-29, N2-(4-Aminosulfonylphenyl)-N4-(chroman-4-amine-6-yl)-5-fluoro-2,4-pyrimidinediamine]
